IC50 data for 2 compounds are collected here from PMC13516207 (Pharmaceuticals, 2026).

By IC50 is commonly meant the point on the concentration scale where inhibition reaches its midpoint. Low readings indicate greater potency, high ones weaker potency.

Bridge positions count the residues as written; N and C are the ends. Square brackets hold non-standard residues; d marks the D form. Side chains are listed from the residue outwards. Peptide text beside a SMILES is read from it. * marks the point of attachment. NOTA = O=C(O)CN1CCN(CC(=O)O)CCN(CC(=O)*)CC1; 2Nal = N[C@@H](Cc1ccc2ccccc2c1)C(=O)O; Lys(iPr) = CC(C)NCCCC[C@H](N)C(=O)O

The target of the test is human CXCR4 (Homo sapiens, UniProt P61073). Description: CXCL12-AF647 competition binding on Jurkat cells, flow cytometry. Conditions: competition with CXCL12-AF647, mean ± SD. (In general: A flow cytometer gives signals particle by particle.)
Chain of human CXCR4 (P61073 whole entry): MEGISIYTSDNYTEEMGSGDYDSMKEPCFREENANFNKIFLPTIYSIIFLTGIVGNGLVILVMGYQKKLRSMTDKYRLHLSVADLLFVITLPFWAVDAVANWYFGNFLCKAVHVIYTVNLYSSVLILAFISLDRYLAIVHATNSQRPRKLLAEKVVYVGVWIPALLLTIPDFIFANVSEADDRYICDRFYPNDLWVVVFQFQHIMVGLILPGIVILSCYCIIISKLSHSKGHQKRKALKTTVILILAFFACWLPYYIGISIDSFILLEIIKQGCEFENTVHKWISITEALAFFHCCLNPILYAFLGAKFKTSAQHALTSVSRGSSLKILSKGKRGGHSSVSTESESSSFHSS

Procedure: Subsequently, 50 µL containing 0.25 × 10^6 Jurkat cells was added to each well, followed by 50 µL human CXCL12-AF647 (100 ng/mL; Almac, Craigavon, UK). Plates were incubated for 30 min at room temperature in the dark. After incubation, the cells were washed twice by centrifugation (400× g, 5 min) to replace the supernatant and subsequently fixed with 1% paraformaldehyde (Merck, Darmstadt, Germany). Fluorescence intensity was quantified by flow cytometry, and IC50 values were obtained by nonlinear regression analysis. All measurements were performed with at least four technical replicates.

Regarding `CC(C)NCCCC[C@H](NC(=O)[C@H]1CCC(=O)N[C@@H](Cc2ccccc2)C(=O)N[C@@H](Cc2ccc(O)cc2)C(=O)N[C@@H](CCCCNC(C)C)C(=O)N[C@H](CCCNC(=N)N)C(=O)N[C@@H](Cc2ccc3ccccc3c2)C(=O)NCC(=O)N1)C(N)=O` [LY2510924, cyclo[Phe-Tyr-Lys(iPr)-D-Arg-2-Nal-Gly-D-Glu]-Lys(iPr)-NH2] (FY[Lys(iPr)][dR][2Nal]G[dE][Lys(iPr)]-NH2; lactam N-7), the IC50 was 0.36 ± 0.07 nM. Then `CC(C)NCCCC[C@@H]1NC(=O)[C@H](Cc2ccc(O)cc2)NC(=O)[C@H](Cc2ccccc2)NC(=O)CC[C@H](C(=O)N[C@@H](CCCCNC(C)C)C(=O)N[C@@H](CCCCNC(=O)[C@H](CCC(=O)O)NC(=O)[C@H](CCC(=O)O)NC(=O)[C@H](CCC(=O)O)NC(=O)CN2CCN(CC(=O)O)CCN(CC(=O)O)CC2)C(N)=O)NC(=O)CNC(=O)[C@H](Cc2ccc3ccccc3c2)NC(=O)[C@@H](CCCNC(=N)N)NC1=O` [[^natF]AlF-NOTA-SC] (FY[Lys(iPr)][dR][2Nal]G[dE][Lys(iPr)]K([Glu-Glu-Glu-NOTA])-NH2; lactam N-7), with 14.4 ± 2.65 nM.
